According to article PMC6382696, “Drug Repurposing: The Anthelmintics Niclosamide and Nitazoxanide Are Potent TMEM16A Antagonists That Fully Bronchodilate Airways” (Frontiers in Pharmacology, 2019):
Read-outs that look alike come from different tables or passages of the source.

Key:
human bronchial rings = experiment: Wire myograph bronchodilation of carbachol pre-contracted human bronchial rings (Amgen)
Description: Bronchodilator studies using human bronchial rings (Figure 5E–G and Supplementary Figure 38) used the same instruments and reagents described earlier for studies on mouse tracheal rings.
Non-transplantable human lungs were obtained through the International Institute for the Advancement of Medicine, IIAM (Edison, NJ, United States) from non-smoking donors who had been ventilated for <3 days with acceptable blood gasses and used within 24 h of cross-clamp time.
Human 4th order bronchial rings were isolated, sliced into 2 mm long rings and then mounted individually in chambers of wire myographs containing 6 ml room temperature PSS per chamber. […] Bronchial rings are allowed to equilibrate in PSS while chambers are warmed to 37°C. […] The rings were then equilibrated for additional 40–60 min, changing buffer every 15–20 min. Tension was adjusted if it dropped below 9.8 mN. Airway rings were “woken up” by exposing to pre-warmed, aerated KPSS and allowing rings to reach plateau of constriction, followed by washing rings four times with PSS. This procedure was repeated two additional times.
Airway contraction response was then assessed by treating with increasing doses of the contractant, carbachol (10 nM to 10 μM), waiting for response plateaus (at least 5 min between additions).
At the end of each CCRC, rings were fully relaxed by addition of 2.2 mM theophylline. One hundred percent contraction was calculated by subtracting the stable tension remaining in the airway ring after theophylline addition from the tension achieved after addition of EC75 carbachol while 100% relaxation is the net tension remaining after theophylline addition. Dose response curves and EC50 values for bronchodilation were determined in GraphPad Prism.

[1] = test system: human bronchial smooth muscle cells; experiment: Histamine-induced depolarization of human bronchial smooth muscle cells (FLIPR membrane potential); format: cell-based; settings: read-out: Histamine Depolarization of ASM Cells (IC50)
Description: Cultured human bronchial smooth muscle cells (BSMC) from Lonza were resuspended in Smooth Muscle Growth Medium-2 (SmGM-2; Lonza) at a concentration of 4 × 10^5 cells per ml. One hundred microliters of cells per well were plated in a black wall clear bottom polystyrene 96-well tissue culture plate and incubated in a 37°C humidified incubator with 5% CO2 overnight. Cells were serum starved by removing the SmGM-2 and replaced with one hundred microliters per well of Smooth Muscle Cell Basal Medium 2 (SmBM-2), phenol red-free (PromoCell), and incubated in a 37°C humidified incubator with 5% CO2 for 24 h. SmBM-2 was replaced with 100 microliters of fresh SmBM-2. Compounds were dissolved in 100% DMSO and serially diluted ½ log in a polypropylene 96-well microtiter plate (drug plate). Columns 6 and 12 were reserved as controls (HI control and LO control respectively) and contained only DMSO. Serially diluted compounds were diluted in SmBM-2 to 10X the final concentration. Twenty-five microliters of 10X compound titrations, and one hundred microliters of Blue dye-loading buffer (FLIPR Membrane Potential Assay Kit; Molecular Devices) were added to the cells. Cells were pre-incubated at room temperature with compound for 0.5 h. Five micromolar (10X) histamine was prepared in SmBM-2. Using the FLIPR-Tetra (Molecular Devices), three measurements of the baseline fluorescence were taken over the span of 1 min. Twenty-five microliters per well of 10X histamine were added to the first 11 columns of the plate containing the compound treated cells. Twenty-five microliters of SmBM-2 were added to column 12 for the LO control. Fifty-five fluorescence measurements were taken over the span of 14 min. The area under the curve (AUC) from the fluorescence kinetic traces (normalized to baseline fluorescence) were calculated. The amount of fluorescence in the presence of compound compared with that in the presence of DMSO vehicle alone (HI control) was calculated using the formula: % control (POC) = (compd – average LO)/(average HI – average LO)^∗100.

human CFTR = biological target: T1, human CFTR (Homo sapiens, UniProt P13569); experiment: IonWorks Barracuda electrophysiology, CFTR chloride current in CHO cells; format: cell-based; settings: for effect on CFTR chloride current: 10 µM compound, CHO CFTR
T1 construct: host or cells: CHO
T1 sequence (P13569 whole entry): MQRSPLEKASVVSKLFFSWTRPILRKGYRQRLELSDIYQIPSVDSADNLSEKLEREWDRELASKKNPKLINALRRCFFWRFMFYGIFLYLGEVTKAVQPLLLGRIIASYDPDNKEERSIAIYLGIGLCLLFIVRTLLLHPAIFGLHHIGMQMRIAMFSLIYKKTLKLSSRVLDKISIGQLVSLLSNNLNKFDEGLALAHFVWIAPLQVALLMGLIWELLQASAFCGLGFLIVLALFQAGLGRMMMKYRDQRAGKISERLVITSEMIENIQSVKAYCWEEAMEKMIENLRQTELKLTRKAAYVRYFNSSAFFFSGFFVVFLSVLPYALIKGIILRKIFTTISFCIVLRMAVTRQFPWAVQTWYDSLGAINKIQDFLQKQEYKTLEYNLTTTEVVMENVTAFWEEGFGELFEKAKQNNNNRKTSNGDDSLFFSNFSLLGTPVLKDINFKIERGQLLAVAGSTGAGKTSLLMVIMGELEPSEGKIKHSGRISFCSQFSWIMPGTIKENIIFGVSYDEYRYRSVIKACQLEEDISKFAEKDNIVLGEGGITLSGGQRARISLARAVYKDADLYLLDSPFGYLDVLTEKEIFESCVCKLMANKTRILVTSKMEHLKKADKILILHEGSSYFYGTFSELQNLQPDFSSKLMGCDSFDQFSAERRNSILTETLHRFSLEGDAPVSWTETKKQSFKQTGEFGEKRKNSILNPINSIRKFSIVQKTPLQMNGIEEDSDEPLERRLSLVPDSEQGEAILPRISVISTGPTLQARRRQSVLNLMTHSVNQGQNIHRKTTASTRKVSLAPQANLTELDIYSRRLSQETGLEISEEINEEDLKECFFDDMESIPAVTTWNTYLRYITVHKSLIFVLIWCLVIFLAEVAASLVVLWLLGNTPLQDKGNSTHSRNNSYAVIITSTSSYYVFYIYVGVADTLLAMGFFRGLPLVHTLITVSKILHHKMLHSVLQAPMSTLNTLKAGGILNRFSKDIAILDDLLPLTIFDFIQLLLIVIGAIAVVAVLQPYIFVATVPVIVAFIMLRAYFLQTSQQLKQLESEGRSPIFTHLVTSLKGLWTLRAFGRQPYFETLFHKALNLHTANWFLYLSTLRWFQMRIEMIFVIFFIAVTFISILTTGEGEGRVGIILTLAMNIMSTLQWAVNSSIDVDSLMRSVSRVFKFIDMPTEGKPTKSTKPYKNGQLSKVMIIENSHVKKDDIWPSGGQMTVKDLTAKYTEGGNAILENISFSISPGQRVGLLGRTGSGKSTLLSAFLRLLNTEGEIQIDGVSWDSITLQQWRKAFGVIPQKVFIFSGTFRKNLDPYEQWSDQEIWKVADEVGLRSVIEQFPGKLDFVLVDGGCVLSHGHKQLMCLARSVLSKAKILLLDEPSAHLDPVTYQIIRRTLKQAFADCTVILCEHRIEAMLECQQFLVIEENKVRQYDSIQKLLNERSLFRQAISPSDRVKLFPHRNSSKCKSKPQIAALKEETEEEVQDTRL
From the text: HEK293 cells stably expressing the human TMEM16A (abc) variant and CHO cells expressing the human CFTR gene were from ChanTest. The IonWorks Barracuda (IWB) procedure and data provided are from outsourced studies performed at ChanTest (Charles River Discovery, Cleveland, OH, United States) who were blinded as to the identity of the test articles or compounds provided by Amgen.
For measuring compound effects on CFTR chloride currents, compounds were serially diluted in HEPES-buffered physiological saline to 2X final concentration allowing for an 8-point dose-response analysis. Test article concentrations were applied to naïve cells (n = 4, where n = the number of replicate wells/concentration) via steel needles, where each application will consist of addition of 20 μl of 2X concentrated test article solution to a final 40 μl volume in the extracellular well of the Population Patch ClampTM (PPC) planar electrode. After mixing (three times), duration of exposure to compound is at least 5 min. Final solutions contain 0.3% DMSO. […] The current is measured using a pulse pattern consisting of a voltage step to +60 mV, 100 ms duration; voltage ramp from +60 to −120 mV, 1000 ms; step to −120 mV, 200 ms; and step to 0 mV, 200 ms; from holding potential, −30 mV. Current amplitudes were measured at the voltage step to 0 mV. The recording procedure was as follows: extracellular buffer is loaded into the PPC plate wells (11 μl per well). Cell suspension was pipetted into the wells (9 μl per well) of the PPC planar electrode. After establishment of a whole-cell configuration via amphotericin patch perforation similar to that described earlier, membrane currents were recorded using the patch clamp amplifier in the IonWorks^TM Barracuda system. Two recordings (scans) were then performed, one scan before and a second scan 5 min after test article (TA) application. […] Data acquisition and analyses were performed using the IonWorks Barracuda^TM system operation software (version 2.0.2). The decrease in current amplitude after test article application was used to calculate the percent block relative to control. […] Inhibition effect was calculated as: % Inhibition = (1 – ITA/IBaseline) × 100%, where IBaseline and ITA were the currents measured in control (before addition of a test article) and in the presence of a test article, respectively.

[2] = Homo sapiens, EC75 carbachol, 4th order bronchi, 5 μM indomethacin, read-out: EC50 relaxing carbachol precontracted human bronchial rings
[3] = Homo sapiens, supplement, 5 M indomethacin (so in the source), read-out: EC50 relaxation of carbachol pre-contracted human bronchial rings
[4] = 20 μM forskolin, IonWorks Barracuda, read-out: CFTR Chloride Current (IC50)

Structure (SMILES) | EC50 (human bronchial rings; [2]) [µM] | EC50 (human bronchial rings; [3]) [µM] | IC50 [1] [µM] | IC50 (human CFTR) [µM] | effect on cAMP-induced CFTR chloride current (human CFTR; IonWorks Barracuda) | IC50 (human CFTR; [4]) [µM] | EC50 (human bronchial rings; EC75 carbachol, 4th order bronchi, 5 μM indomethacin, read-out: EC50 relaxing carbachol precontracted human bronchial rings) [µM] | percent of inhibition (POI) of the forskolin-induced CFTR current (human CFTR) [%] | effect on CFTR chloride current (human CFTR)
CCc1oc2ccccc2c1C(=O)c1cc(Br)c(O)c(Br)c1 [Benzbromarone] | 2.08 ± 1.95 | 3.45 | 0.208 ± 0.248 | 5.2 | reduced |  |  |  | 
O=C(Nc1ncc([N+](=O)[O-])s1)c1cccs1 [NTTP] |  |  | 25.2 ± 5.45 |  |  |  |  |  | 
CC(C)(C)C1CCc2c(sc(NC(=O)c3ccco3)c2C(=O)O)C1 (centres unmarked) [CaCCinh-A01] | 9.24 |  | 4.76 ± 1.23 |  | reduced | 10.1 |  |  | 
Oc1ccc(Cl)cc1Cc1cc(Cl)ccc1O [Dichlorophen] | 19.1 |  | 0.938 ± 0.36 |  |  |  | 10.6 ± 12 |  | 
CCc1c(C)nc(SCC(=O)Nc2nc(-c3ccc(OC)cc3)cs2)[nH]c1=O [T16Ainh-A01] |  |  | > 30 |  |  | > 30 |  |  | 
N#Cc1c(C(F)(F)F)cc(O)n2c1nc1ccccc12 [1PBC] | 0.91 ± 0.2 | 0.761 | 0.964 ± 0.756 |  | inactive | > 30 |  |  | 
COc1cc(Nc2ccc([N+](=O)[O-])cc2C(=O)O)cc2ccccc12 [MONNA] |  |  | 0.201 ± 0.162 |  | reduced | 19 |  |  | 
O=C(O)c1cccnc1Nc1cccc(C(F)(F)F)c1 [Niflumic Acid] | 14.4 ± 0.76 | 14.9 | 6.29 ± 1.59 |  |  | > 30 |  |  | 
O=C(Nc1ccc(Cl)cc1)c1cc(Cl)ccc1O [Cpd 5] |  |  | 0.071 ± 0.02 |  |  |  |  |  | 
O=C(Nc1ccc([N+](=O)[O-])cc1)c1cc(Cl)ccc1O [Cpd 2] |  |  | 0.044 |  | inactive |  |  | < 20 | 
O=C(Nc1ccc([N+](=O)[O-])cc1)c1cc(Cl)c2ccccc2c1O [Cpd 3] |  |  | 0.017 |  |  |  |  |  | 
O=C(Nc1ccc([N+](=O)[O-])cc1Cl)c1cc(Cl)ccc1O [Niclosamide] | 0.73 |  | 0.389 ± 0.478 |  | inactive | > 30 |  | < 20 | no significant effects
COc1cc([N+](=O)[O-])ccc1NC(=O)c1cc(Cl)c2ccccc2c1O [Cpd 4] | 1.61 |  | 0.178 ± 0.007 |  | inactive | > 30 |  | < 20 | no significant effects
